The values below come from patent publication US20240091328A1, “FORMULATIONS AND METHODS FOR MHC-I RESTRICTED EPITOPE IMMUNIZATION” (The Research Foundation for The State University of New York, priority 2021, published 2024).

For the experiment, the system named is IFN-γ. Nature of the experiment: In vivo peptide micro-library screening, IFN-γ ELISA of re-stimulated splenocytes relative to A5. Also on record: species or system mice. As to conditions: rank among 100 micro-library peptides; IFN-γ on re-stimulation relative to A5; 5 peptides plus A5 with CPQ. On the procedure: Mice were immunized with 5 library peptides at a time, along with the A5 peptide, with all peptides combined and admixed with CPQ. After two intramuscular injections, splenocytes were collected, and then re-stimulated with each of the synthetic micro-library peptides, individually. Production of IFN-γ was measured and peptide immunogenicity was determined relative to the A5 peptide, which served as in internal control that could induce strong Ag-specific CD8^+ T cell responses.
For Ag screening, multivalent vaccine composed of peptide with the same MHC-I haplotypes (H-2L^d, H-2D^d, or H-2K^d) and the internal A5 peptide were admixed with CPQ. After immunization, only ˜10% of MHC-I binding peptides induced T cells in splenocytes that produced IFN-γ with peptide re-stimulation, and none were nearly as effective as A5 (FIG. 16B). The most highly immunogenic peptides only produced about a quarter of the level of IFN-γ relative to A5. […] It is also feasible that immunization with higher antigen doses of single individual peptides could have induced stronger immunogenic responses, although this would decrease the in vivo peptide micro-library screening throughput.
IFN-γ ELISA: 2.5×10^5 splenocytes were seeded in a 96 wells plate and stimulated with 10 μg/mL antigens for 72 hr. 50 μL of supernatant was collected from each well and subjected to Interferon gamma ELISA (Thermofisher; catalog: BMS606TEN) according to manufacturer protocol.
(An ELISA detects its analyte on a solid surface through an enzyme-linked reagent.)

Regarding “H6-AYVNAIEKI-ERR (HHHHHHAYVNAIEKIERR; CT12)”, the Experimental rank stood at 93.

Consider “H6-AYVNATGEV-ERR (HHHHHHAYVNATGEVERR; CT13)”, for which the Experimental rank is listed as 95. As to “H6-CQIAMVHYI-ERR (HHHHHHCQIAMVHYIERR; CT61)”, the Experimental rank is 10. Then “H6-CYVTYKGEI-ERR (HHHHHHCYVTYKGEIERR; CT9)”, with 89; and “H6-DPFATPLSM-ERR (HHHHHHDPFATPLSMERR; CT21)”, with 83. As to “H6-DPQFAENYV-ERR (HHHHHHDPQFAENYVERR; CT94)”, the Experimental rank is on record as 55. For “H6-DSPNRRFTE-ERR (HHHHHHDSPNRRFTEERR; CT60)”, the Experimental rank was found to be 20. With “H6-EGPHGQPVS-ERR (HHHHHHEGPHGQPVSERR; CT54)” the figure was 57; with “H6-EPQIAMDDM-ERR (HHHHHHEPQIAMDDMERR; CT22)”, 74; with “H6-EPQVEPLDF-ERR (HHHHHHEPQVEPLDFERR; CT15)”, 81. With “H6-EYEKIEIPI-ERR (HHHHHHEYEKIEIPIERR; CT68)” the figure was 66. With “H6-FFMKMASKF-ERR (HHHHHHFFMKMASKFERR; CT73)” the figure was 78; with “H6-FPPQNMFEF-ERR [CT14] (HHHHHHFPPQNMFEFERR; CT14)”, 98; with “H6-FPPQNMFEF-ERR [CT43] (HHHHHHFPPQNMFEFERR; CT43)”, 15. With “H6-FPSESEFFK-ERR (HHHHHHFPSESEFFKERR; CT83)”, the Experimental rank is recorded as 26. With “H6-FYTSYLRRL-ERR (HHHHHHFYTSYLRRLERR; CT74)” the figure was 76. With “H6-GFPSPLGGI-ERR (HHHHHHGFPSPLGGIERR; CT58)” the figure was 42. Consider “H6-GHVAAGGAL-ERR (HHHHHHGHVAAGGALERR; CT79)”, for which the Experimental rank was found to be 46. With “H6-GPPGGFQEF-ERR [CT4] (HHHHHHGPPGGFQEFERR; CT4)” the figure was 63; with “H6-GPPGGFQEF-ERR [CT99] (HHHHHHGPPGGFQEFERR; CT99)”, 53. Turning to “H6-GPPPHSAPC-ERR (HHHHHHGPPPHSAPCERR; H6 and ERR flanks; CT47)”, the Experimental rank came to 71. Then “H6-GRPSIDNVL-ERR (HHHHHHGRPSIDNVLERR; CT51)”, with 37; and “H6-GYEAVVRLL-ERR (HHHHHHGYEAVVRLLERR; CT23)”, with 77.

Regarding “H6-HHTMMVQAI-ERR (HHHHHHHHTMMVQAIERR; CT24)”, the Experimental rank amounted to 86. With “H6-HYLNDGDAI-ERR (HHHHHHHYLNDGDAIERR; H6 and ERR flanks; CT25)” the figure was 80; with “H6-IGQMLQTHF-ERR (HHHHHHIGQMLQTHFERR; CT84)”, 49; with “H6-IPDEAMVKL-ERR (HHHHHHIPDEAMVKLERR; CT16)”, 33.

As to “H6-IPIFHILNT-ERR (HHHHHHIPIFHILNTERR; CT85)”, the Experimental rank came to 8. With “H6-IYLESVAIM-ERR (HHHHHHIYLESVAIMERR; CT78)”, the Experimental rank turned out to be 50.

For the substance “H6-IYSRTTDVL-ERR (HHHHHHIYSRTTDVLERR; CT76)”, the Experimental rank was found to be 64. Then “H6-KGPKRDEQC-ERR (HHHHHHKGPKRDEQCERR; CT2)”, with 65; and “H6-KGPRNIQLD-ERR (HHHHHHKGPRNIQLDERR; CT57)”, with 48; and “H6-KGPYWLEVK-ERR (HHHHHHKGPYWLEVKERR; CT44)”, with 44. As to “H6-KLLASALST-ERR (HHHHHHKLLASALSTERR; CT39*)”, the Experimental rank came to 5. Then “H6-KPFTICKYY-ERR (HHHHHHKPFTICKYYERR; CT88)”, with 34; and “H6-KPYESYTEQ-ERR (HHHHHHKPYESYTEQERR; CT87)”, with 75. With “H6-KTPEL VEAL-ERR (HHHHHHKTPELVEALERR; CT36*)” the figure was 51; with “H6-KYFQAGKYE-ERR (HHHHHHKYFQAGKYEERR; CT69)”, 21.

For the substance “H6-KYYAVNFSM-ERR [CT8] (HHHHHHKYYAVNFSMERR; CT8)”, the Experimental rank is 88. With “H6-KYYAVNFSM-ERR [CT95] (HHHHHHKYYAVNFSMERR; CT95)” the figure was 59; with “H6-LFLKSPTAL-ERR (HHHHHHLFLKSPTALERR; CT34)”, 99; with “H6-LFVTVLEVI-ERR (HHHHHHLFVTVLEVIERR; CT26)”, 91. Then “H6-LGYRYWTGI-ERR (HHHHHHLGYRYWTGIERR; CT92)”, with 41; and “H6-LLYNAVVWL-ERR (HHHHHHLLYNAVVWLERR; CT93)”, with 27; and “H6-LNYPHITNL-ERR (HHHHHHLNYPHITNLERR; CT81)”, with 54. With “H6-LVPNRFSRL-ERR (HHHHHHLVPNRFSRLERR; CT45)” the figure was 13. “H6-LYLANLRHM-ERR (HHHHHHLYLANLRHMERR; CT64)”: the Experimental rank was 14. With “H6-MLARKQFDL-ERR (HHHHHHMLARKQFDLERR; CT86)” the figure was 60; with “H6-MPQLFMVSK-ERR (HHHHHHMPQLFMVSKERR; CT100)”, 16. With “H6-NALSSMGAL-ERR (HHHHHHNALSSMGALERR; CT40*)” the figure was 6. For “H6-NPRAMQVLL-ERR (HHHHHHNPRAMQVLLERR; CT20)”, the Experimental rank was 38. With “H6-PGGFQEFNF-ERR (HHHHHHPGGFQEFNFERR; CT89)” the figure was 25; with “H6-PGPIKCVPI-ERR (HHHHHHPGPIKCVPIERR; CT3)”, 22. Then “H6-PPQNMFEFP-ERR (HHHHHHPPQNMFEFPERR; CT82)”, with 67; and “H6-PTPRRFSPP-ERR (HHHHHHPTPRRFSPPERR; CT52)”, with 24. Turning to “H6-PYFRLEHYL-ERR (HHHHHHPYFRLEHYLERR; CT27)”, the Experimental rank is on record as 87. With “H6-PYLTALDDL-ERR (HHHHHHPYLTALDDLERR; CT28)” the figure was 82; with “H6-QFPSESEFF-ERR (HHHHHHQFPSESEFFERR; CT5)”, 18. “H6-RGEYEDPYY-ERR (HHHHHHRGEYEDPYYERR; CT56)”: the Experimental rank is 35. Then “H6-RGGPKKCAL-ERR (HHHHHHRGGPKKCALERR; CT53)”, with 32; and “H6-RGPPPHSAP-ERR (HHHHHHRGPPPHSAPERR; H6 and ERR flanks; CT46)”, with 72. Then “H6-RHNTMLKAM-ERR (HHHHHHRHNTMLKAMERR; CT66)”, with 61; and “H6-RKIKGPYWL-ERR (HHHHHHRKIKGPYWLERR; CT91)”, with 52.

“H6-RPIKGPRNI-ERR (HHHHHHRPIKGPRNIERR; CT18)”: the Experimental rank was 47. With “H6-RTPHVLWSW-ERR (HHHHHHRTPHVLWSWERR; CT41)” the figure was 40.

For “H6-RYWTGIGVL-ERR (HHHHHHRYWTGIGVLERR; CT11)”, the Experimental rank stood at 92.
